Data on 11 compounds can be found in publication PMC12747935 (2025).

Structures are written as SMILES.

Common to all, as to assay: ribozyme self-cleavage, PAGE with SYBR Gold
Experiment [1] deals with THEO allosteric ribozyme (RNA, aptamer) GGGCGUAGCCUGAUGAGCCCUAAUACCAGCCGAAAGGCCCUUGGCAGUAGAGCGAAACGUGGAAACACGUCGCUGCGAGCUGUGG
As to conditions: 100 mM KCl, 20 mM MgCl2, 30 mM HEPES pH 7.5, 25°C, 30 min; for binding: 100 μM compound.

In experiment [2] the test system is ThiC-TPP allosteric ribozyme (bridge of four base pairs) (RNA, riboswitch) GGGCGUAGCCUGAUGAGACUCGGGGUGCCCUUCUGCGUGAAGGCUGAGAAAUACCCGUAUCACCUGAUCUGGAUAAUGCCAGCGUAGGGAAGUCGAAACGUGGUGAAAGCCACGUCGCUGCGCCGCAGCUGUGGAA
As to conditions: 100 mM KCl, 20 mM MgCl2, 30 mM HEPES pH 7.5, 25°C, 30 min.

The test system of experiment [3] is NCU-TPP allosteric ribozyme (bridge of three base pairs) (RNA, riboswitch) GGGCGUAGCCUGAUGAGACUACGGGCGCUGUCGAAAGACAGCUGAGAUUGUACCGUGAUUACUCGAUCAAGUUAAUGCUUGCGUGAGAAACGUCGAAACGUGGUGAAAGCCACGUCGCUGCGCCGCAGCUGUGGAA
As to conditions: 100 mM KCl, 20 mM MgCl2, 30 mM HEPES pH 7.5, 25°C, 30 min, half-maximal cleavage change.

In experiment [4] the test system is ThiC-TPP allosteric ribozyme (bridge of three base pairs) (RNA, riboswitch) GGGCGUAGCCUGAUGAGCUCGGGGUGCCCUUCUGCGUGAAGGCUGAGAAAUACCCGUAUCACCUGAUCUGGAUAAUGCCAGCGUAGGGAAGCGAAACGUGGUGAAAGCCACGUCGCUGCGCCGCAGCUGUGGAA
The following applies: 100 mM KCl, 20 mM MgCl2; 30 mM HEPES pH 7.5, 25°C, 30 min; apparent; text gives only 1 to 3 μM for both bridges.

The test system of experiment [5] is Motif_9307 allosteric ribozyme (RNA, riboswitch) GGGCGUAGCCUGAUGAGACUUAUAAUUUUUGAUAUAGAAAUAAAUUACAGUAGUUACACGCAAUAACCGUUGGUCCAAAUAGUAUCCUGUCCUGAGCCGACCGAGUCGAAACGUGGUGAAAGCCACGUCGCUGCGCCGCAGCUGUGGAA
The following applies: 100 mM KCl, 20 mM MgCl2; 30 mM HEPES pH 7.5, 25°C, 30 min; no change in cleavage.

For the compound `Cn1c(=O)c2[nH]cnc2n(C)c1=O`, the “apparent K D” value in experiment [1] (apparent, half-maximal cleavage induction) came out at 3100 ± 200 nM.
For `Cc1ncc(C[n+]2csc(CCOP(=O)(O)OP(=O)(O)O)c2C)c(N)n1`, the “apparent K D” value in experiment [2] (apparent, half-maximal cleavage inhibition) was found to be 1200 ± 200 nM; in experiment [3], 2400 ± 1400 nM. In experiment [4], the “K D” value worked out at 3000 ± 1100 nM.
With `Nc1ncnc2c1ncn2[C@@H]1O[C@H](CSCC[C@H](N)C(=O)O)[C@@H](O)[C@H]1O`, the binding entry in experiment [5] is recorded as “no”.
For `N[C@@H](Cc1cnc[nH]1)C(=O)O`, the binding entry in experiment [2] (cleavage fraction 0.393 against 0.403 without ligand) is given as “no”.
`CSCC[C@H](N)C(=O)O`: in experiment [5], the binding result is given as “no”.
Turning to `NC(=O)CC[C@H](N)C(=O)O`, the binding result in experiment [5] is “no”.
For `Cn1c(=O)[nH]c2nc[nH]c2c1=O`, the binding result in experiment [1] (cleavage fraction 0.300 against 0.163 without ligand) was “weak”.
For `N[C@@H](CCS)C(=O)O`, the binding result in experiment [5] is recorded as “no”.
Regarding `Cn1c(=O)[nH]c(=O)c2[nH]cnc21`, the binding result in experiment [1] (cleavage fraction 0.421 against 0.163 without ligand) is listed as “yes”.
As to `Cc1ncc(C[n+]2csc(CCO)c2C)c(N)n1`, in experiment [2] (cleavage fraction 0.235 against 0.403 without ligand), the binding entry is listed as “yes”.
As to `C[S+](CC[C@H](N)C(=O)O)C[C@H]1O[C@@H](n2cnc3c(N)ncnc32)[C@H](O)[C@@H]1O` (stereo partly shown), the binding entry in experiment [5] is “no”.
